Entries after “also recorded” stand apart in the source; their conditions may differ. Residues, ends and D or L forms follow the SMILES beside them. *: point of attachment. Palmitoyl = CCCCCCCCCCCCCCCC(=O)*
Experiments:
wild type Drosophila = experiment: Egg-to-adult viability of wild type flies; format: in vivo; details: fly food containing 10 or 50 µM peptide, 21.5 °C; 3 independent experiments
Protocol: Flies were raised at 21.5 °C on cornmeal medium supplemented with dry yeast. Fly lines bearing UAS-DsRed CAG0 and UAS-DsRed CAG100 were kind gifts of Professor Nancy Bonini (University of Pennsylvania, USA). The gmr-GAL4 fly line was obtained from Bloomington Drosophila Stock Center. For pseudopupil assay, third instar larvae were fed with various amount of respective peptides dissolved in 2% sucrose solution for 2 hr and then continued to culture in standard fly food at 21.5 °C[38]. Pseudopupil assay was performed on 12 day-old adult flies as mentioned previously. Images were captured by SPOT Insight CCD camera controlled by the SPOT Advanced software (Diagnostic instruments Inc.). Image processing was performed using the Adobe Photoshop CS software (Adobe). Each experiment was repeated at least 3 times (n = 10 fly heads), and consistent results were obtained. […] Viability from egg-to-adult was calculated as the number of adult flies collected divided by the number of eggs examined. […]
viability of wild type Drosophila from egg to adult. […] Viability from egg to adult was calculated as the number of adult flies collected divided by the number of eggs examined. Data are expressed as mean ± S.E.M. for 3 independent experiments. […]

DsRed CAG100 Drosophila = experiment: Pseudopupil assay of retinal degeneration; format: in vivo; details: 1 µM peptide fed to third instar larvae for 2 hr in 2% sucrose; 12 day-old adult flies; mean ± S.E.M.
Protocol: Flies were raised at 21.5 °C on cornmeal medium supplemented with dry yeast. Fly lines bearing UAS-DsRed CAG0 and UAS-DsRed CAG100 were kind gifts of Professor Nancy Bonini (University of Pennsylvania, USA). The gmr-GAL4 fly line was obtained from Bloomington Drosophila Stock Center. For pseudopupil assay, third instar larvae were fed with various amount of respective peptides dissolved in 2% sucrose solution for 2 hr and then continued to culture in standard fly food at 21.5 °C[38]. Pseudopupil assay was performed on 12 day-old adult flies as mentioned previously. Images were captured by SPOT Insight CCD camera controlled by the SPOT Advanced software (Diagnostic instruments Inc.). Image processing was performed using the Adobe Photoshop CS software (Adobe). Each experiment was repeated at least 3 times (n = 10 fly heads), and consistent results were obtained. For viability test of wild-type flies from egg to adult stage, eggs born within 5 hr were collected and cultured in fly food containing 10 or 50 μM of respective peptides at 21.5°C. Viability from egg-to-adult was calculated as the number of adult flies collected divided by the number of eggs examined. Each experiment was repeated for three times (at least 130 eggs were examined in each group). Two batches of independently synthesized peptides were used in the experiments.

[1] = tested on: pre-rRNA in DsRed CAG100 flies; experiment: Real-time PCR of pre-rRNA level in fly heads; format: in vivo, Drosophila; details: 1 μM peptide, 12 day-old adult fly heads
Protocol: RNA was extracted from cells or ten 12 day-old adult fly heads by Trizol reagent (Life Technologies), and 1 μg of purified RNA was then used for reverse-transcription using the ImPromII™ Reverse Transcription System (Promega). Random hexamer (Roche) was used as primers in reverse transcription. Taqman gene expression assays were performed on an ABI 7500 Real-time PCR system and data were analyzed as previously described. The following probes were used: pre-45s rRNA (Assay ID: AILJIZM), pre-rRNA (Assay ID: AIMSG5U), Drosophila GAPDH (Assay ID: Dm01841186) and human actin (Assay ID: Hs99999903_m1). Each experiment was repeated at least 3 times.

Compound | egg-to-adult viability (wild type Drosophila) | pseudopupil score (DsRed CAG100 Drosophila) | pre-rRNA level [1]
CCCCCCCCCCCCCCCC(=O)N[C@@H](CC(=O)O)C(=O)NCC(=O)N[C@@H](CCCCN)C(=O)N[C@@H](CO)C(=O)N[C@@H](CCCCN)C(=O)NCC(=O)N[C@H](C(=O)N[C@@H](C)C(=O)N[C@@H](Cc1ccc(O)cc1)C(=O)N[C@H](C(=O)N[C@@H](CCC(=O)O)C(=O)N[C@@H](Cc1ccccc1)C(=O)N[C@@H](CCCCN)C(N)=O)[C@@H](C)CC)[C@@H](C)CC [L1P3V8] (Palmitoyl-DGKSKGIAYIEFK-NH2) | did not affect; also recorded: no obvious alteration | – | –
Ac-DGKSKGIAYIEFK-NH2 [P3V8] | – | 4.32 ± 0.25 | fully recovered to the DsRed CAG0 control level

Source: article PMC5608758, “A brain-targeting lipidated peptide for neutralizing RNA-mediated toxicity in Polyglutamine Diseases” (Scientific Reports, 2017)
